Where two headings read alike, the source gives them in different places.
Key:
hRPTECs [1] = format: cell-based, human; details: hRPTECs on the iBAC, 24 h
Procedure: (§1) After the microdevice was assembled, it was exposed to ultraviolet light for 30 min. The porous membrane was coated with collagen type I hydrogel at 37 °C for 2 h. The hRPTECs or HK2 cells (2 × 10^5 cells/ cm^2) were seeded on the lower microfluidic channel and incubated upside down at 37 °C for 2 h, allowing the seeded hRPTECs or HK2 cells to attach to the porous membrane surface. Then, 100 μL of the culture medium was added to each chamber and the device was placed on the iBAC Rocker (MR100110, Daxiang biotech, Beijing, China) for dynamic culture.
(§2) The Live/Dead kit (Thermo Fisher, Waltham, MA, USA), LDH kit (Life Technologies, Paisley, UK) and CellTiter-Glo (Promega, Madison, WI, USA) were used to evaluate cell viability on the iBAC. These assays were performed on test compound-treated monolayers following the manufacturer’s instructions. The assay protocols are described briefly here. In the live/dead cell assay, the cells were incubated with the live/dead cell imaging reagents for 15–30 min at 37 °C and observed under a fluorescent microscope. […] In the CellTiter-Glo luminescent cell viability assay, the cells were incubated with the CellTiter-Glo reagents for 30 min at room temperature and detected with a microplate reader. […] The absorbance was then taken at 490 nm and 680 nm using a microplate reader (BMG Labtech, Germany).

HK2 cells [2] = test: LDH release from HK2 cells on the iBAC; format: cell-based, human; details: 24 h
Procedure: as §1, §2

hRPTECs [3] = format: cell-based
Procedure: as §1
(§3) The Live/Dead kit (Thermo Fisher, Waltham, MA, USA), LDH kit (Life Technologies, Paisley, UK) and CellTiter-Glo (Promega, Madison, WI, USA) were used to evaluate cell viability on the iBAC. These assays were performed on test compound-treated monolayers following the manufacturer’s instructions. The assay protocols are described briefly here. In the live/dead cell assay, the cells were incubated with the live/dead cell imaging reagents for 15–30 min at 37 °C and observed under a fluorescent microscope. The viable cells were stained green, while the dead ones were stained red. In the CellTiter-Glo luminescent cell viability assay, the cells were incubated with the CellTiter-Glo reagents for 30 min at room temperature and detected with a microplate reader. For the LDH assay, 50 μL of medium from each well of the treatment plates was transferred into fresh 96-well plates and an equal volume of LDH reaction mixture was added. The samples were incubated at room temperature for 30 min before the reaction was stopped by adding 50 μL of stop solution. The absorbance was then taken at 490 nm and 680 nm using a microplate reader (BMG Labtech, Germany).

HK2 cells [4] = test: cells; format: cell-based; details: HK2 cells on the iBAC, 48 h; for IC50: Homo sapiens, HK-2, apical side, read-out: IC50 (cell viability)
Procedure: as §1, §3

hRPTECs [5] = test: Active absorption (Papp) through hRPTECs on the iBAC; format: in vitro ADME, human; details: for Papp value: hRPTECs on the iBAC, day 4, two hours of dynamic absorption, FITC-albumin (Megalin/Cubilin), ASP+ (OCT2), 5-CF (OAT1)
Procedure: as §1
(§4) After two hours of dynamic absorption, the sample concentrations of FITC-albumin (Ex = 495 nm, Em = 535 nm), ASP+ (Ex = 474 nm, Em = 606 nm) and 5−CF (Ex = 490 nm, Em = 515 nm) were detected by using a microplate reader (BMG Labtech, Germany).
(§5) The Papp was calculated using the equation below:Papp [cm/s] = (1/AC0)(dQ/dt) where A = area of mass transfer, C0 = donor concentration of reagent in the upper medium, and dQ/dt = transmembrane transportation rate.

HK2 cells [6] = test: Active absorption (Papp) through HK2 model on the iBAC; format: in vitro ADME, human; details: day 4
Procedure: as §1, §4, §5

hRPTECs [7] = test: Active absorption (Papp) through hRPTECs on the static Transwell; format: in vitro ADME, human; details: day 4
Procedure: as §4, §5

P-gp [8] = target: T1, P-gp (Homo sapiens, UniProt P08183); test: in vitro
T1 sequence (P08183 whole entry): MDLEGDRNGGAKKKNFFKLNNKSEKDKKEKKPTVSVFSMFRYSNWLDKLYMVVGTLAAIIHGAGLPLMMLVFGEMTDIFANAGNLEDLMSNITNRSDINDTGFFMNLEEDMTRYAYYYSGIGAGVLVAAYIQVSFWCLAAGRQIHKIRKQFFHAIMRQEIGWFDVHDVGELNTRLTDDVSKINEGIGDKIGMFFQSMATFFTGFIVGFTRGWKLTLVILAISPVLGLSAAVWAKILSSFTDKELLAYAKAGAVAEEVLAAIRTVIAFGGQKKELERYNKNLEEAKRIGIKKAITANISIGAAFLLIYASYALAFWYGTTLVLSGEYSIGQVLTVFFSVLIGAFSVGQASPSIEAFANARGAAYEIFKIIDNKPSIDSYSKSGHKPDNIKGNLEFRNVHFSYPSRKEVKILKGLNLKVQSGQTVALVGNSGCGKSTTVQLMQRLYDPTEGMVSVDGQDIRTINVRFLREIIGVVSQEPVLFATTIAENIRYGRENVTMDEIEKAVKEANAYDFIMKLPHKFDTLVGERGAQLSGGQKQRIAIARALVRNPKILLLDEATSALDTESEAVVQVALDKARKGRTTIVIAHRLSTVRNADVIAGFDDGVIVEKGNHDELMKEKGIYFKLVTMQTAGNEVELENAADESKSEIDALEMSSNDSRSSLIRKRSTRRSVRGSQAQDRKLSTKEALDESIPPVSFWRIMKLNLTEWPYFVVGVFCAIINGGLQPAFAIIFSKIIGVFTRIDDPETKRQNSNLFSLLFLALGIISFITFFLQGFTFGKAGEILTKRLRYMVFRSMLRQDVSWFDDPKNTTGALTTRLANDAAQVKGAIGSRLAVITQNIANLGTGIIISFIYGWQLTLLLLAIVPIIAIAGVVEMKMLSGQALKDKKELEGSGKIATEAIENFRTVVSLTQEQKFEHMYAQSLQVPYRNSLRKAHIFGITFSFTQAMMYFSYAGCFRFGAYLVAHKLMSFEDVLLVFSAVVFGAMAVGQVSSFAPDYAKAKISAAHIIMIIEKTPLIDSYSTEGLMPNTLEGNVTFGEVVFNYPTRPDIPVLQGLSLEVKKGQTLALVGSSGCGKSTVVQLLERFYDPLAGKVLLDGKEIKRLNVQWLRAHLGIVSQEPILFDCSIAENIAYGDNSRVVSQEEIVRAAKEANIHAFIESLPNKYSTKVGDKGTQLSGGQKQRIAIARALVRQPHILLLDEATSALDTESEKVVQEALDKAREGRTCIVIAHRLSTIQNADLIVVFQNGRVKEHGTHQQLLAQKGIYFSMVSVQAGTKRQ

P-gp [9] = target: T1, P-gp; test: P-gp efflux function (rhodamine 123 with or without verapamil), hRPTECs on the iBAC; details: hRPTECs model, without inhibitor
P-gp [10] = target: T1, P-gp; test: P-gp efflux function (rhodamine 123 with or without verapamil), HK2 model on the iBAC; details: without inhibitor
BCRP [11] = target: T2, BCRP (Homo sapiens, UniProt Q9UNQ0); test: BCRP efflux function (DiOC2 with or without Ko143), hRPTECs on the iBAC; format: in vitro ADME
T2 sequence (Q9UNQ0 1-655): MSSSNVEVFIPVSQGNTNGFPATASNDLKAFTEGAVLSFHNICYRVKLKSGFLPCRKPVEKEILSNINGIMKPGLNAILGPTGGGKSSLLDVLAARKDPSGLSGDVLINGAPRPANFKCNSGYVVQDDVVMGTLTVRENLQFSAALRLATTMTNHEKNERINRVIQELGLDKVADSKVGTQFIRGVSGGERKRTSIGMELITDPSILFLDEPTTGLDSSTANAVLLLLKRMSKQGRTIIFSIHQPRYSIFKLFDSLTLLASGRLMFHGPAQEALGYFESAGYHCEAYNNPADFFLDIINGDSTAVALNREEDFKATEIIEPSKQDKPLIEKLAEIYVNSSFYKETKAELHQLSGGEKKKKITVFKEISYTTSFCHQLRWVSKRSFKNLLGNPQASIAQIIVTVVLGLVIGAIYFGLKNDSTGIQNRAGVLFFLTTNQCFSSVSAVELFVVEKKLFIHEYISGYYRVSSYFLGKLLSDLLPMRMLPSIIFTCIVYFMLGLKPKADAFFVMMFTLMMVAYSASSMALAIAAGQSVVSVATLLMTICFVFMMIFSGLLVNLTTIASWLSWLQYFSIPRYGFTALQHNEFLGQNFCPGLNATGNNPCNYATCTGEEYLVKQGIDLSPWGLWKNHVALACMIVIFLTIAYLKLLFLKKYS
Procedure: as §5

BCRP [12] = target: T2, BCRP; test: BCRP efflux function (DiOC2 with or without Ko143), HK2 model on the iBAC; format: in vitro ADME; details: without inhibitor
Procedure: as §5

Compound: CN/C(=N/CCSCc1nc[nH]c1C)NC#N [cimetidine, Cimetidine]
- Relative LDH release with cisplatin in the presence of the cimetidine (hRPTECs [1]): 93%
- Relative LDH release with cisplatin in the presence of the cimetidine (HK2 cells [2]): 109%

Compound: CCN(CC)CCNC(=O)c1c(C)[nH]c(/C=C2\C(=O)Nc3ccc(F)cc32)c1C [sunitinib]
- Toxicity on the apical side (cell viability) (hRPTECs [3]): induced toxicity
- Toxicity on the basal side (cell viability) (hRPTECs [3]): only induced nephrotoxicity on the apical side dosing
- IC50 (HK2 cells [4]): 29 µM

Compound: CN(C)c1ccc(/C=C/c2cc[n+](C)cc2)cc1.[I-] [ASP+, 4-Di-1-ASP]
- Papp value (hRPTECs [5]): 9.2 ×10⁻⁶ cm/s
- Papp value, iBAC compared with Transwell (hRPTECs [5]; hRPTECs, day 4): significantly higher than that on the Transwell
- Papp value (HK2 cells [6]): 2.3 ×10⁻⁶ cm/s

Compound: 5(6)-Carboxyfluorescein [5−CF]
- Papp value (hRPTECs [5]): 0.039 ×10⁻⁶ cm/s
- Papp value (hRPTECs [7]): 0.002 ×10⁻⁶ cm/s
- Papp value (HK2 cells [6]): 0.009 ×10⁻⁶ cm/s

Compound: COC(=O)c1ccccc1-c1c2ccc(=N)cc-2oc2cc(N)ccc12 [rhodamine 123, Rhodamine 123]
- Papp at 2 h, 2 μM (P-gp [8]): 13 ×10⁻⁶ cm/s
- Cumulative amount of substrate in cells (P-gp [9]): very low
- Cumulative amount of substrate in cells (P-gp [10]): very low

Compound: polymyxin B
- Toxicity on the apical side (cell viability) (hRPTECs [3]; hRPTECs on the iBAC, apical administration, 48 h): induced toxicity
- Toxicity on the basal side (cell viability) (hRPTECs [3]; hRPTECs on the iBAC, basal administration, 48 h): induced toxicity
- Toxicity on both sides (cell viability) (HK2 cells [4]; apical and basal administration): not toxic

Compound: COc1cccc2c1C(=O)c1c(O)c3c(c(O)c1C2=O)C[C@@](O)(C(=O)CO)C[C@@H]3O[C@H]1C[C@H](N)[C@H](O)[C@H](C)O1 [doxorubicin]
- Toxicity on the apical side (cell viability) (hRPTECs [3]): induced toxicity
- Toxicity on the basal side (cell viability) (hRPTECs [3]): only induced nephrotoxicity on the apical side dosing
- IC50 (HK2 cells [4]): 14.2 µM

Compound: CCN1/C(=C/C=C/c2oc3ccccc3[n+]2CC)Oc2ccccc21.[I-] [DiOC2]
- Cumulative amount of substrate in cells (BCRP [11]; hRPTECs model, without inhibitor): very low
- Papp value of DiOC2 without Ko143 (BCRP [11]; hRPTECs on the iBAC, DiOC2 10 μM): 4.6 ×10⁻⁶ cm/s
- Papp value of DiOC2 with Ko143 (BCRP [11]; hRPTECs on the iBAC, DiOC2 10 μM, Ko143 10 μM): 4.1 ×10⁻⁶ cm/s
- Cumulative amount of substrate in cells (BCRP [12]): very low

Source: article PMC9496563, “Functional Evaluation and Nephrotoxicity Assessment of Human Renal Proximal Tubule Cells on a Chip” (Biosensors, 2022)
